From PubChem BioAssay (NCI)
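Method: 48-hour compound exposure of cells in 96-well plates, five concentrations, linear interpolation of endpoints. The concentration for 50% growth inhibition is given as GI50. TGI is the concentration that stops growth completely.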

Experiments:
Assay in all cases: inhibition of tumour cell growth, NCI panel, 48 h
[1] = tested on: 786-0 renal
[2] = tested on: A549 NSCLC
[3] = tested on: ACHN renal
[4] = tested on: BT-549 breast
[5] = tested on: CAKI-1 renal
[6] = tested on: COLO 205 colon
[7] = tested on: EKVX NSCLC
[8] = tested on: HCT-116 colon
[9] = tested on: HCT-15 colon
[10] = tested on: HL-60(TB) leukemia
[11] = tested on: HOP-62 NSCLC
[12] = tested on: HOP-92 NSCLC
[13] = tested on: HT29 colon
[14] = tested on: IGROV1 ovarian
[15] = tested on: K-562 leukemia
[16] = tested on: KM12 colon
[17] = tested on: LOX IMVI melanoma
[18] = tested on: M14 melanoma
[19] = tested on: MALME-3M melanoma
[20] = tested on: MDA-MB-231 breast
[21] = tested on: MDA-MB-435
[22] = tested on: MOLT-4 leukemia
[23] = tested on: NCI-H23 lung
[24] = tested on: NCI-H460 lung
[25] = tested on: NCI/ADR-RES ovarian
[26] = tested on: OVCAR-3 ovarian
[27] = tested on: OVCAR-4 ovarian
[28] = tested on: OVCAR-8 ovarian
[29] = tested on: PC-3 prostate
[30] = tested on: RPMI-8226 leukemia
[31] = tested on: RXF 393 renal
[32] = tested on: SF-268 CNS
[33] = tested on: SF-295 CNS
[34] = tested on: SK-MEL-2 melanoma
[35] = tested on: SK-MEL-28 melanoma
[36] = tested on: SK-MEL-5 melanoma
[37] = tested on: SK-OV-3 ovarian
[38] = tested on: SN12C renal
[39] = tested on: SNB-19 CNS
[40] = tested on: SNB-75 CNS
[41] = tested on: SW-620 colon
[42] = tested on: T-47D breast
[43] = tested on: TK-10 renal
[44] = tested on: U251 CNS
[45] = tested on: UACC-257 melanoma
[46] = tested on: UACC-62 melanoma
[47] = tested on: UO-31 renal
[48] = tested on: CCRF-CEM leukemia
[49] = tested on: DU-145 prostate
[50] = tested on: HCC-2998 colon
[51] = tested on: HS 578T breast
[52] = tested on: MCF7 breast
[53] = tested on: NCI-H226 lung
[54] = tested on: NCI-H522 lung
[55] = tested on: OVCAR-5 ovarian
[56] = tested on: SF-539 CNS
[57] = tested on: SR leukemia

COC(=O)/C(=C/N1CCN(C(=O)c2ccco2)C1=S)C(C)=O
GI50 [1]: 11.2 µM
TGI [1]: 27.7 µM
GI50 [2]: 19.3 µM
TGI [2]: 39.7 µM
GI50 [3]: 4.05 µM
TGI [3]: 17.8 µM
GI50 [4]: 3.48 µM
TGI [4]: 9.03 µM
GI50 [5]: 2.82 µM
TGI [5]: 8.52 µM
GI50 [6]: 12.6 µM
TGI [6]: 35.8 µM
GI50 [7]: 2.64 µM
TGI [7]: 9.89 µM
GI50 [8]: 7.42 µM
TGI [8]: 24.2 µM
GI50 [9]: 2.22 µM
TGI [9]: 5.77 µM
GI50 [10]: 7.47 µM
TGI [10]: 71.5 µM
GI50 [11]: 20.6 µM
TGI [11]: 42.8 µM
GI50 [12]: 20.8 µM
TGI [12]: 75.4 µM
GI50 [13]: 15.8 µM
TGI [13]: 46 µM
GI50 [14]: 10.4 µM
TGI [14]: 36 µM
GI50 [15]: 10.2 µM
TGI [15]: > 100 µM
GI50 [16]: 3.04 µM
TGI [16]: 9.78 µM
GI50 [17]: 1.59 µM
TGI [17]: 3.99 µM
GI50 [18]: 10.7 µM
TGI [18]: 24.4 µM
GI50 [19]: 5.64 µM
TGI [19]: 50.4 µM
GI50 [20]: 9.01 µM
TGI [20]: 26.5 µM
GI50 [21]: 4.51 µM
TGI [21]: 36.6 µM
GI50 [22]: 20.8 µM
TGI [22]: > 100 µM
GI50 [23]: 12.2 µM
TGI [23]: 31.9 µM
GI50 [24]: 2.19 µM
TGI [24]: 5.88 µM
GI50 [25]: 22.2 µM
TGI [25]: 56.8 µM
GI50 [26]: 2.67 µM
TGI [26]: 11.6 µM
GI50 [27]: 17.4 µM
TGI [27]: 42.9 µM
GI50 [28]: 27.8 µM
TGI [28]: 88.5 µM
GI50 [29]: 18.1 µM
TGI [29]: > 100 µM
GI50 [30]: 5.49 µM
TGI [30]: > 100 µM
GI50 [31]: 4.41 µM
TGI [31]: 9.49 µM
GI50 [32]: 5.84 µM
TGI [32]: 25.6 µM
GI50 [33]: 18.6 µM
TGI [33]: 83.8 µM
GI50 [34]: 15.2 µM
TGI [34]: 51 µM
GI50 [35]: 9.08 µM
TGI [35]: 52.6 µM
GI50 [36]: 5.26 µM
TGI [36]: 17.4 µM
GI50 [37]: 31.3 µM
TGI [37]: 78.2 µM
GI50 [38]: 5.93 µM
TGI [38]: 22.4 µM
GI50 [39]: 41.7 µM
TGI [39]: 94.8 µM
GI50 [40]: 21 µM
TGI [40]: > 100 µM
GI50 [41]: 3.9 µM
TGI [41]: 12.5 µM
GI50 [42]: 6.02 µM
TGI [42]: 29.8 µM
GI50 [43]: 3.54 µM
TGI [43]: 14.9 µM
GI50 [44]: 5.53 µM
TGI [44]: 23.1 µM
GI50 [45]: 17.2 µM
TGI [45]: 39.3 µM
GI50 [46]: 11.5 µM
TGI [46]: 28.3 µM
GI50 [47]: 13.5 µM
TGI [47]: 30.9 µM

COc1cc2cc(C(=O)O)[nH]c2cc1OCc1ccccc1
GI50 [1]: > 100 µM
TGI [1]: > 100 µM
GI50 [3]: > 100 µM
TGI [3]: > 100 µM
GI50 [4]: > 100 µM
TGI [4]: > 100 µM
GI50 [5]: > 100 µM
TGI [5]: > 100 µM
GI50 [48]: > 100 µM
TGI [48]: > 100 µM
GI50 [6]: > 100 µM
TGI [6]: > 100 µM
GI50 [49]: > 100 µM
TGI [49]: > 100 µM
GI50 [7]: > 100 µM
TGI [7]: > 100 µM
GI50 [50]: > 100 µM
TGI [50]: > 100 µM
GI50 [8]: > 100 µM
TGI [8]: > 100 µM
GI50 [9]: 84 µM
TGI [9]: > 100 µM
GI50 [10]: > 100 µM
TGI [10]: > 100 µM
GI50 [11]: > 100 µM
TGI [11]: > 100 µM
GI50 [51]: > 100 µM
TGI [51]: > 100 µM
GI50 [13]: > 100 µM
TGI [13]: > 100 µM
GI50 [14]: > 100 µM
TGI [14]: > 100 µM
GI50 [15]: > 100 µM
TGI [15]: > 100 µM
GI50 [16]: > 100 µM
TGI [16]: > 100 µM
GI50 [17]: > 100 µM
TGI [17]: > 100 µM
GI50 [18]: > 100 µM
TGI [18]: > 100 µM
GI50 [19]: 2.97 µM
TGI [19]: 12.2 µM
GI50 [52]: 93.2 µM
TGI [52]: > 100 µM
GI50 [20]: > 100 µM
TGI [20]: > 100 µM
GI50 [21]: > 100 µM
TGI [21]: > 100 µM
GI50 [22]: > 100 µM
TGI [22]: > 100 µM
GI50 [53]: > 100 µM
TGI [53]: > 100 µM
GI50 [23]: > 100 µM
TGI [23]: > 100 µM
GI50 [24]: > 100 µM
TGI [24]: > 100 µM
GI50 [54]: > 100 µM
TGI [54]: > 100 µM
GI50 [25]: > 100 µM
TGI [25]: > 100 µM
GI50 [26]: > 100 µM
TGI [26]: > 100 µM
GI50 [27]: > 100 µM
TGI [27]: > 100 µM
GI50 [55]: > 100 µM
TGI [55]: > 100 µM
GI50 [28]: > 100 µM
TGI [28]: > 100 µM
GI50 [29]: > 100 µM
TGI [29]: > 100 µM
GI50 [30]: > 100 µM
TGI [30]: > 100 µM
GI50 [31]: > 100 µM
TGI [31]: > 100 µM
GI50 [32]: > 100 µM
TGI [32]: > 100 µM
GI50 [33]: > 100 µM
TGI [33]: > 100 µM
GI50 [56]: > 100 µM
TGI [56]: > 100 µM
GI50 [34]: 44.9 µM
TGI [34]: > 100 µM
GI50 [35]: 53.5 µM
TGI [35]: > 100 µM
GI50 [36]: 80.8 µM
TGI [36]: > 100 µM
GI50 [37]: > 100 µM
TGI [37]: > 100 µM
GI50 [38]: > 100 µM
TGI [38]: > 100 µM
GI50 [39]: > 100 µM
TGI [39]: > 100 µM
GI50 [40]: > 100 µM
TGI [40]: > 100 µM
GI50 [57]: > 100 µM
TGI [57]: > 100 µM
GI50 [41]: > 100 µM
TGI [41]: > 100 µM
GI50 [42]: > 100 µM
TGI [42]: > 100 µM
GI50 [43]: > 100 µM
TGI [43]: > 100 µM
GI50 [44]: > 100 µM
TGI [44]: > 100 µM
GI50 [45]: 89.4 µM
TGI [45]: > 100 µM
GI50 [46]: > 100 µM
TGI [46]: > 100 µM
GI50 [47]: > 100 µM
TGI [47]: > 100 µM
